Measured values taken from a melting point compilation (Tetko et al.; mined from patent text by program, amines drawn as free bases though some values may be those of a salt).

Compound | melting point [°C]
CNc1nc2ccccc2c2[nH]c3ccccc3c12 | 146 to 147
COc1cc(C(=O)N[C@@H](CCC(=O)O)C(=O)O)ccc1NCCCc1c(N)nc(N)[nH]c1=O | 165 to 184
N#CC1CCc2cc(C(N)=O)ccc2C1 (stereo not drawn) | 180 to 182
CCc1cccc(CC(=O)O)c1OCCCc1cn(-c2ccc(C(F)(F)F)nn2)nc1C(C)C | 126 to 127
N#Cc1ccc(-n2c(=O)oc3ccc(-c4ccc(F)cc4F)cc3c2=O)cc1 | 203 to 204
COc1ccc(N2C(=O)C(=C3CCCN3C)c3ccccc32)cc1Cl | 126 to 128
NC(=O)c1c(F)cc(-c2ccc3nnn(Cc4ccc5ncccc5c4)c3n2)cc1F | 272 to 275
O=C(c1ccc(OC(F)(F)F)cc1)N1CCc2cc(S(=O)(=O)N3CC(c4ccccc4)NC3=O)ccc21 (stereo not drawn) | 180 to 182
CCNc1cc(-c2c[nH]c(S)n2)ccn1 | > 260
Clc1cc(N2CCCC2)nc(Cl)n1 | 100 to 104
COc1cnccc1-c1csc(Cc2ccccc2)n1 | 76 to 77
CCC#CCCOc1ccc(/C=C/C(=O)Nc2ccccc2C(=O)O)cc1OC | 165 to 166
CCSc1ccc(-c2coc3ccc(-c4nnc(C)o4)cc23)cc1F | 115 to 116
O=C(O)CCn1c(=O)c2ccccc2n(CCCCN2CCC(OC(c3ccccc3)c3ccccc3)CC2)c1=O | 107 to 108
CC(C)(C)OC(=O)NC(C)(C)c1ccc(-c2nc(Nc3ccc(-n4ccnc4)cc3)ncc2Cl)cc1 | 218 to 220
CCOC(=O)CC(=O)c1ccncn1 | 52.3
CC(C)(CC(=O)C(=O)Nc1ccc2c(c1)COC2=O)c1ccccc1 | 132 to 134
Cc1oc(-c2ccc(F)cc2)cc1C(=O)Nc1cccc(CSCC(=O)O)c1 | 198 to 199
COc1cc(O)c2c(=O)c(OC)c(-c3ccc(OC(C)=O)c(OC)c3)oc2c1 | 168 to 169
COc1ccc(S(=O)(=O)N(Cc2cccnc2)c2c(C(=O)O)cnc3c2c(C)nn3C)cc1 | 256 to 258
COc1cc2c(c3c1OC(C)(C)C3)C(c1cccc(NC(=O)CS(C)(=O)=O)c1)=NC(C)(C)C2 | 135 to 140
CC(C)(C)c1cc(CCc2n[nH]c(=S)o2)cc(C(C)(C)C)c1O | 164 to 166
CCCCC(=O)Cc1ccc(C(=O)Nc2ccc3cc(CN4CCCC4)cnc3c2C)cc1 | 156
CCS(=O)(=O)Nc1cc(-c2nsc(C(F)(F)F)c2Cl)c(Cl)cc1Cl | 135
COC(=O)C(c1ccc(O)cc1)N1CC(NC(=O)Cc2ccccc2)C1=O (stereo not drawn) | 172 to 175

Compound | melting point [°C]
CCc1c(C(=O)OC(C)C)ncc2[nH]c3ccc4ncc(C)nc4c3c12 | 215 to 216
NC(=O)C(Nc1ccccc1C(=O)C1CC1)c1c(Cl)cccc1Cl (stereo not drawn) | 196
COc1cc(C)nc(NC(=O)NS(=O)(=O)c2ccccc2CCC(F)(F)F)n1 | 174 to 175
CC(C)COCCOc1ccc(OCC(O)CNCCNC(=O)N(C)C)cc1 (stereo not drawn) | 75
CC(Br)CCCCN1C(=O)c2ccccc2C1=O (stereo not drawn) | 48 to 51
CN1C(=O)C(NC(=O)Nc2ccccc2Cl)N=C(c2ccccc2)c2ccccc21 (stereo not drawn) | 212 to 214
Cc1nc(-c2cn(CC(F)(F)c3ccccc3)nn2)sc1C(=O)NCc1cccnc1 | 150 to 151
CC(C)CN(C[C@H](O)COc1cccc2[nH]c3ccccc3c12)c1ccc(Oc2ccc(C(N)=O)cn2)cc1 | 126 to 142
CC(=O)[C@H]1CC[C@H]2[C@@H]3CCC4=C/C(=N/OC(=O)[C@@H](NC(=O)OC(C)(C)C)C(C)C)CC[C@]4(C)[C@H]3CC[C@]12C | 147 to 149
OCc1cnc2n1-c1ccc(Cl)cc1C(c1ccccc1)=NC2 | 210 to 213
O=C(Nc1ccccc1)Nc1ccc(Cc2ccc(NC3=NCCN3)cc2)cc1 | 167 to 170
OCCNc1ccc(C2CCCCC2)cc1 | 39 to 41
Cc1cn(C(C(=O)N(C)C)c2ccccc2)nc1-c1ccccc1 (stereo not drawn) | 136 to 138
C=CCC1(CC=C)c2cc(Br)ccc2-c2ccc(Br)cc21 | 149 to 150
Cc1ccc2cc([N+](=O)[O-])c3ccc(C)nc3c2n1 | 184 to 186
CCCCn1c(=O)c(NC(=O)Nc2c(C(C)C)cccc2C(C)C)c(-c2cccc(OCCO)c2)c2cccnc21 | 106 to 110
N#CN=c1[nH]c2cc(Cl)c(Cl)c([N+](=O)[O-])c2[nH]c1=O | 280 to 285
Cc1cccc(C)c1COc1cc(C(=O)N(C)C)cc2c1nc(C)n2C | 180
CCNC(=O)c1cc([Si](C)(C)C)sc1[Si](C)(C)C | 106 to 111
Cc1cc(C)cc(C(=O)N2CCN(C(=O)CNC3CCN(C(=O)c4ccccc4)CC3)C(c3ccc(Cl)c(Cl)c3)C2)c1 (racemic) | 94 to 96
N#Cc1ccc(C(F)(F)F)cc1NN=Nc1ccccc1 | 139 to 141
COc1cc2nc(N3CCN(c4nc5c([nH]4)CCCCC5)CC3)nc(N)c2cc1OC | > 250
COCC(=O)Nc1c(Cl)c(Cl)cc2nc(OC)c(OC)nc12 | 171 to 173
Cc1csc2c(CS(=O)c3nc4ccccc4[nH]3)nccc12 (stereo not drawn) | 186 to 188
O=C(O)C1C(=O)c2cc(F)ccc2N=C1c1ccccc1 (stereo not drawn) | 297

Compound | melting point [°C]
CC(=O)NCc1ccc(/C=C/C(c2cc(Cl)cc(Cl)c2)C(F)(F)F)cc1 (stereo not drawn) | 107 to 109
CCOP(=O)(Cc1ccc(NC(=O)C(Cc2ccccc2)C(=O)O)cc1)OCC (stereo not drawn) | 160 to 161
CC(CO)c1ccc(-c2ccccc2)c(F)c1 (stereo not drawn) | 61 to 63
CCCCc1oc2ccccc2c1C(=O)c1ccc2c(Br)c(OC(Cc3ccccc3)C(=O)O)ccc2c1 (stereo not drawn) | 165 to 167
O=S(=O)(NCC1CCN(C[C@H]2COc3ccc(C(F)(F)F)cc3O2)CC1)c1cccc(Cl)c1Cl | 139 to 140
COCC(=O)OCn1cc(C#N)c(-c2cccc(Cl)c2Cl)c1 | 72 to 75
COc1ccc(Cn2cnc3c(-c4ccco4)nc(OC(C)C)nc32)cc1 | 145 to 146
CCOC(=O)C(C#N)c1cn(C(=O)OCC)c2cc(Cl)ccc12 (stereo not drawn) | 126 to 128
N#Cc1cnc2cc(/C=C/CCCN3CCOCC3)ccc2c1Nc1ccc(Cl)cc1Cl | 142 to 144
COC(=O)C#CC(=O)c1ccc(OC)cc1 | 68
CCCCc1ccc(-c2nc3ccccc3[nH]2)nc1 | 138 to 139
N#CC=C1CCc2ccc3ncoc3c21 | 166 to 168
Nc1c(Cl)c(Br)cc2[nH]c(=O)c(=O)[nH]c12 | > 350
C=C1/C(=C\C=C2/CCC[C@@]3(C)[C@H]2CC[C@@H]3[C@]2(C)C[C@H](CC(C)(C)O)CO2)C[C@@H](O)C[C@@H]1O | 128
O=C1CCC(CO)N1OCc1ccccc1 (stereo not drawn) | 121 to 123
CC1(C)C(=O)Nc2ccc(-c3ccc(F)c(Cl)c3)cc21 | 206 to 208
C[C@@H]1[C@H](c2ccccc2)[C@]1(NS(=O)(=O)c1ccc(-c2cc(C(C)(F)F)on2)s1)C(=O)O | 177 to 178
O=c1nc(-c2ccc(Sc3ccc(Cl)cc3)nc2)sc2ccccc12 | 222
COc1cc2c(cc1O)C(C)(C)CC2=O | 105 to 107
CC(C)(CF)C(=O)C(Oc1ccc(Cl)cc1)n1cncn1 (stereo not drawn) | 60 to 63
CCC1(C)OC1COc1ccc(C(=O)c2ccccc2)cc1 (stereo not drawn) | 66 to 67
COc1cc(C)cc(OC)c1C(=O)CCl | 82 to 84
CC(C)CN1C(=O)[C@@H](CCCl)O[C@H](c2ccccc2Cl)c2cc(Cl)ccc21 (relative stereo) | 138 to 140
CCOC(=O)C1=C(C)NC(C)=C(C(=O)OCCBr)C1c1cccc([N+](=O)[O-])c1 (stereo not drawn) | 158 to 159
CCOC(=O)c1ccc(NC(=O)CC(C(=O)Nc2ccc(NC(=O)Nc3ccccc3C)cc2)c2ccccc2)cc1 (stereo not drawn) | > 220

Compound | melting point [°C]
CCCCCC(Oc1ccc(C2=CCCCCCC2)cc1)C(=O)O (stereo not drawn) | 57 to 60
N#Cc1ccccc1Sc1ccccc1[N+](=O)[O-] | 166 to 167
CCCCC1=NC2(CCCC2)C(=O)N1Cc1ccc(-c2ccccc2S(=O)(=O)Nc2onc(C)c2C)c(OCC(C)C)c1 | 58 to 61
NC(=S)NCCCCCC(=O)Nc1ccc(C(F)(F)F)cc1 | 140 to 142
CCS(=O)(=O)Nc1ccc(F)c([N+](=O)[O-])c1 | 133 to 136
Cc1cc(-c2cccc(C3=Nc4cc(O)c(-c5ccccc5F)cc4NC(=O)C3)c2)on1 | 237
CS(=O)(=O)Nc1ccc(CCN2CCCCC2)cc1 | 123 to 124
O=C(C[C@@H](CCCC1CCCCC1)c1nc(Cn2cncn2)no1)NO | 118 to 120
Cc1nc(NC(=O)c2cccnc2)sc1C(=O)NCc1ccccc1 | 224 to 226
CNC(=O)c1cccc(-c2ccc(OC(C)C(O)CCc3cccnc3)cc2)c1 (stereo not drawn) | 54 to 55
C=C(C)COc1ccc(C(=O)c2ccccc2)cc1 | 85 to 86.5
CCc1nn2ccccc2c1N(CCCF)C(C)=O | 76.6 to 79.6
COC(=O)C1=C(C)NC(=O)N(C(=O)OC(C)C)C1c1cccc(Cl)c1Cl (stereo not drawn) | 162 to 163
NC(=O)Nc1c(C(=O)c2ccccc2)[nH]c2cc(Cl)ccc12 | 196 to 200
CN1CCN(c2nc(Nc3cccc(NS(C)(=O)=O)c3)nc3[nH]cnc23)CC1 | 148 to 151
CCOC(=O)C1=C(C)NC(=NC#N)NC1c1cccc([N+](=O)[O-])c1 (stereo not drawn) | 250 to 252
CC1(O)CCC(CN2CCC(=C3c4ccc(F)cc4Sc4ccc(C(F)(F)F)cc43)CC2)CC1 (stereo not drawn) | 80 to 90
CC(C)(C)OC(=O)Nc1cc(Cl)c(I)cc1[N+](=O)[O-] | 82 to 84
O=CNc1ccc(-c2c[nH]cn2)cc1 | 108 to 109
CCCC(C)(O)C(=O)Nc1cc(Br)[nH]c(=O)c1 (stereo not drawn) | 188
O=C1CCc2cc(Cl)ccc2C(=O)CCCN1 | 142 to 144
CCc1nc2c(n1C(CC)CC)C(=O)N(C)CN2c1ccc(Cl)cc1Cl | 132 to 133
CC(C)C(=S)Nc1ccc([N+](=O)[O-])c(C(F)(F)F)c1 | 74 to 76
